According to patent publication US9517265B2, “Methods for the prevention and/or treatment of memory impairment” (The Governing Council of the University of Toronto, priority 2010, dated 2016):
pEC50: −log10 of the molar value. “Also recorded” adds a separate entry of the source.

How the values were obtained:
α5GABAARs [1] = target: T1, α5GABAARs (Mus musculus, UniProt P22723+Q8BHJ7); test: Tonic inhibitory current, whole cell voltage-clamp in cultured hippocampal neurons; type: cell-based, mice; parameters: endogenous in cells; host or cells: primary embryonic mouse hippocampal neurons, alone or co-cultured with cortical microglia; details: cultured hippocampal neurons
α5GABAARs [2] = target: T1, α5GABAARs; test: Fear conditioning after IL-1β or LPS injection; type: in vivo, mice; details: for contextual fear memory, WT mice (in words): IL-1β 1 μg kg^−1 i.p. or LPS 125 μg kg^−1 i.p. 3 h before conditioning, inverse agonist co-administered
Experimental: Pavlovian fear-conditioning tasks were used for behavioral analysis^29. LPS (125 μg kg^−1, i.p., with physiological saline as the vehicle control) or IL-1β (1 μg kg^−1, i.p., with 0.1% bovine serum albumin as the vehicle control) was injected into male 3- to 4-month-old WT and Gabra5−/− mice 3 h before conditioning. The intensity of the electric footshock was 0.5 mA. For some mice, the inverse agonist L-655,708 (0.35 or 0.5 mg kg^−1, i.p.) or vehicle control (10% DMSO, i.p.) was injected 30 min before training. The movement of the mouse was monitored. The percentage of time that each mouse spent in a freezing position was determined using FreezeView software (Version 2.26, Actimetrics Inc, Wilmette, Ill., USA).
We have determined that IL-1β-induced impairment of contextual fear memory can be reversed by pharmacological inhibition of α5GABAA receptors by the inverse agonist MRK-016. Fear conditioning was performed 3 h after injection of IL-1β (1 μg kg^−1, i.p.) in both wild-type (WT) and α5GABAA receptor knock out (Gabra5−/−) mice. Mice were trained to associate a context (contextual fear) and a tone (cued fear) with an aversive electric footshock. 24 h after conditioning each mouse was placed in the training context, and contextual fear memory was measured as the percentage of time spent freezing. Cued fear memory was measured 48 h after training as the percentage of time spent freezing to the conditioned auditory tone in a novel context.

[3] = target: T2, GABAA receptor α5-subtype (Homo sapiens, UniProt P18507+P31644); details: inverse agonist selective for the α5-subtype; cited from earlier work
T2 sequence (P31644 32-462): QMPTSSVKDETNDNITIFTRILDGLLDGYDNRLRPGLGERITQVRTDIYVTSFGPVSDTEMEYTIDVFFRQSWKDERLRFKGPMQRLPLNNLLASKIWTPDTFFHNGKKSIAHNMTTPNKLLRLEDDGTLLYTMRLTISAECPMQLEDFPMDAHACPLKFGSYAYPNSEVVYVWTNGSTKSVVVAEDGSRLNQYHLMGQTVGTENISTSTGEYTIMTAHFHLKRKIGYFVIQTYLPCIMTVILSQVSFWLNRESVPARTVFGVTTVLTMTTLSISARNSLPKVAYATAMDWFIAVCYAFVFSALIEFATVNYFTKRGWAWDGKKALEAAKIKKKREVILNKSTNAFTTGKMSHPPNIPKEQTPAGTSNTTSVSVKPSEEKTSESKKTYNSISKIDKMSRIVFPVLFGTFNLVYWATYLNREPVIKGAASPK
T2 sequence (P28472 26-473 partner): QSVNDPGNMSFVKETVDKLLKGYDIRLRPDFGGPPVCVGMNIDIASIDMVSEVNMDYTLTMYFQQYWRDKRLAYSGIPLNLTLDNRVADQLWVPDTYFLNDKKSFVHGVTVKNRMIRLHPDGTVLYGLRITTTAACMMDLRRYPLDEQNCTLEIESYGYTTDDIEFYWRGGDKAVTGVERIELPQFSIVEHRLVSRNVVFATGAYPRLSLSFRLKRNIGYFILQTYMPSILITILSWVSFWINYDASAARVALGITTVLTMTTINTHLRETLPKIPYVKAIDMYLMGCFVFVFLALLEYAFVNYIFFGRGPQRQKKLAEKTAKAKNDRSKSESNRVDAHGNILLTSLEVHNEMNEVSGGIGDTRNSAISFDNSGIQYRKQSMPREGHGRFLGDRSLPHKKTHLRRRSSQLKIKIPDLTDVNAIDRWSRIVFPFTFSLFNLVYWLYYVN
T2 sequence (P18507 40-467 limits assumed): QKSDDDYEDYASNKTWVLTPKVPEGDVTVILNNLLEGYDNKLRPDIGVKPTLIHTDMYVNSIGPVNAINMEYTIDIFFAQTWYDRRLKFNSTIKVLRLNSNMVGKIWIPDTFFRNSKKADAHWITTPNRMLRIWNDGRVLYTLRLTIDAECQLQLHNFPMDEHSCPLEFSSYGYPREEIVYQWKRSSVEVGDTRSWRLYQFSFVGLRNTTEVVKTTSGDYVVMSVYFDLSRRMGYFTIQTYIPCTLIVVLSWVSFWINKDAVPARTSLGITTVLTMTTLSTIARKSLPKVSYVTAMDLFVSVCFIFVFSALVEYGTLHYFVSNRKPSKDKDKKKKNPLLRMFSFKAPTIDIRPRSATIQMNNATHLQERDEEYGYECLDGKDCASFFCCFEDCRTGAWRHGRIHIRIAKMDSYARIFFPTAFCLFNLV

T1 sequence (Q8BHJ7 32-463 limits assumed): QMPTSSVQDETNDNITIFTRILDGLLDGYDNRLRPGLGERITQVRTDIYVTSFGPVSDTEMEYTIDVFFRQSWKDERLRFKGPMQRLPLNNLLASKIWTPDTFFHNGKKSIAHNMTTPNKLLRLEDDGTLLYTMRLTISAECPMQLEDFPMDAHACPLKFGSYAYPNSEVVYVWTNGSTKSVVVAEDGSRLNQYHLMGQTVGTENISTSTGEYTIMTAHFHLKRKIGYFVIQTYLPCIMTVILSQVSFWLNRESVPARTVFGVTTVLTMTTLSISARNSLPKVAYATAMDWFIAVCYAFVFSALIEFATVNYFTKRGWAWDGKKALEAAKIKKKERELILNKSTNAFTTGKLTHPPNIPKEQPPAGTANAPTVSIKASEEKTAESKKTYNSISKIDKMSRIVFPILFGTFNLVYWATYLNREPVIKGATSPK
T1 sequence (P63080 26-473 partner): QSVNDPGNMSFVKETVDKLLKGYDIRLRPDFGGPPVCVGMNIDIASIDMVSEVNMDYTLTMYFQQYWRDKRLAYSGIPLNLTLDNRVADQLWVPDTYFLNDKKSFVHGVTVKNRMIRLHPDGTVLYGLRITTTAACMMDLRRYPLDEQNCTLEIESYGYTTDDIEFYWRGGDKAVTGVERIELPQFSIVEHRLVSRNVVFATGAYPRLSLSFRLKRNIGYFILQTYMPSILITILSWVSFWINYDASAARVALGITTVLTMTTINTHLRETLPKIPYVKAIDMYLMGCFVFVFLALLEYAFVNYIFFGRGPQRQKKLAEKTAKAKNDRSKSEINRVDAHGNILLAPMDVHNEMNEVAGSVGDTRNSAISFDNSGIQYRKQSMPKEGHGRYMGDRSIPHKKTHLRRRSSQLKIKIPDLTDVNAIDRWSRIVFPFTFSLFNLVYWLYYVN
T1 sequence (P22723 39-474): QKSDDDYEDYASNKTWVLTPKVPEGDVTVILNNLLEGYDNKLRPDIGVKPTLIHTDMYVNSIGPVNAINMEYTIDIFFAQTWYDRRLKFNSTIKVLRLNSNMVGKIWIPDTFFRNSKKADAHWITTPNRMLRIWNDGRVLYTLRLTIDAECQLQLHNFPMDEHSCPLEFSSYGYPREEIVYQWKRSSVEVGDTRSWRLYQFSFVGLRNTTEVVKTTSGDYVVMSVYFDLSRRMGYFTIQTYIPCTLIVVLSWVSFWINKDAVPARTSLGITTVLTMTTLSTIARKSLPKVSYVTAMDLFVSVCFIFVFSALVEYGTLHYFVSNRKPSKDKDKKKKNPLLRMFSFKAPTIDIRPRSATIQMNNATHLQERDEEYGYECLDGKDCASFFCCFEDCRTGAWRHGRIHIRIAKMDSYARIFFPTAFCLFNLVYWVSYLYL

SMILES: Cc1cc(-c2nncc3c(C(C)(C)C)c(OCc4ncnn4C)nn23)no1 [MRK-016, 3-(1,1-Dimethylethyl)-7-(5-methyl-3-isoxazolyl)-2-[(1-methyl-1H-1,2,4-triazol-5-yl)methoxy]-pyrazolo[1,5-d][1,2,4]triazine]
- effect on the tonic current (in words) (α5GABAARs [1]): inhibited the tonic current; also recorded: blocks the tonic inhibitory current in hippocampal neurons from mice
- contextual fear memory, WT mice (in words) (α5GABAARs [2]): restored freezing scores for contextual fear memory to control values
- contextual fear memory, WT mice (in words) (α5GABAARs [2]; listed as MRK-016A): reverses memory deficits associated with inflammation
- cued fear memory to a conditioned tone stimulus (in words) (α5GABAARs [2]; mouse, in vivo): did not affect freezing to a conditioned tone stimulus
- pEC50 [3]: 8.52
